From patent US8492614B2, “Plant biochemical systems and uses thereof” (The Board of Trustees of the University of Illinois, priority 2007, dated 2013)
“Also recorded” adds a separate entry of the source.

Experiments:
[1] = tested on: etiolated Arabidopsis seedlings; test: Cotyledon natural fluorescence by deconvoluting microscopy; format: in vivo; conditions: hormone applied to etiolated cotyledons; 24 h; 1.0 μM ABA, 500 μM JA
Method: Fluorescent images were obtained of living unfixed seedlings 24 h post BL or ABA treatment as described in the “Plant Growth and Preparation of Tissue” section. Optical sectioning was achieved by using a Zeiss Axiovert 200M microscope (Carl Zeiss), equipped with ApoTome (collected by grid projection), and a digital camera and the 4#,6-diamino-phenylindole, fluorescein isothiocyanate, and Texas Red filter sets (Chroma). Photographs of whole cotyledon fluorescence were snapped on the same microscope set up, minus the apoTome setting.
The preparation of whole cell extracts from the areal portions of the seedlings for the quantification of Phe levels and PD1 activity levels is described in (Warpeha et al., Plant Physiol. 143:1590-1600, 2007). Phe concentration is determined by HPLC. […] Natural fluorescence of the cotyledons is visualized and quantitated by deconvoluting microscopy using a “DAPI-Long Pass” filter which allows excitation between 300-380 nm and emits with a cutoff […] 400 nm.
If the Phe produced by activated PD1 is necessary for the ability of young etiolated seedlings to respond to UV-B, salt or heat stress, then it is possible that the addition of exogenous Phe (effectively cross feeding Phe) could restore a wild type response to GCR1, GPA1 and PD1 mutants when assayed for cotyledon fluorescence and the ability to survive sub-lethal levels of UV-C. To determine if exogenous Phe can restore wild type responses to GCR1, GPA, and PD1 mutants, 1 mM Phe is added to the top agar during planting and the experiment described above specifically testing for cotyledon surface fluorescence and the ability to survive sub-lethal levels of UV-C is repeated. Serine and […] are used as negative controls in these assays.
The experiments described above for examining if GCR1, GPA1 and PD1 are required for young etiolated seedlings to respond to UV-B, salt or heat stress are performed but with ABA, ACC, JA and SA substituting for UV-B, salt and heat. For these experiments, ABA is tested at 1.0 μM dissolved in ethanol and applied as an atomized mist. […]

Lhcb expression = test: Lhcb RNA levels by northern analysis after ABA treatment of etiolated seedlings; format: in vivo, Arabidopsis; conditions: 800 nM ABA
Method: Six-d-old dark-grown Arabidopsis seedlings col wild type or insertion mutants were grown on 0.8% agarose plates containing only 0.5× Murashige and Skoog media as described in Lapik and Kaufman (2003). The growth media contains no additional sugar, hormones, vitamins or other nutrients. Seedlings were irradiated with a single pulse (10 s) of low fluence BL (total fluence of 10^2 μmol m^−2); or a single pulse (100 s) of saturation fluence BL (total fluence of 10^4 μmol m^−2); or no light (DK), and/or, treated with 800 nM ABA dissolved in ethanol, or ethanol alone, placed back in the dark for two h after which total RNA was extracted and used for northern blot analysis (Lapik and Kaufman, 2003). Lhcb and rDNA probes used, quantitation methods, and means of normalization to rRNA levels are described elsewhere (Marrs and Kaufman, (1991) Planta 183: 327-333). […] All induction data is correct for loading through the quantitation of the rRNA as described (Warpeha and Kaufman, (1990) Planta 182: 553-558). […] Real time quantitative PCR (qPCR) was used to measure the level of Lhcb RNA induction in response to a single pulse of low fluence blue light as a confirmation of the Northern blot analysis methods. […] The qPCR-derived information (4 different RNA sets of Dark and BL-treated) data was analyzed using (ΔΔCoT). […]

PD1 [2] = test: Cytosolic PD1 activity after ABA treatment of etiolated seedlings; format: in vivo, Arabidopsis; conditions: ABA treatment of etiolated wild type
Source text: Activated GPA1 has a specific physical interaction with PD1 that results in a significant increase in PD1 activity. PD1 is the only member of the PD family that is expressed in etiolated Arabidopsis. […] The increase in PD1 activity in response to BL or ABA treatment also requires GCR1. BL Irradiation or ABA treatment of pd1, gcr1 and gpa1 T-DNA insertion mutants result in none of these events described for wt. We conclude that GCR1, GPA1 and PD1 form a signaling chain that is responsible for ABA and BL induced synthesis of phenylpyruvate, phenylalanine and a series of UV absorbing products from the phenylpropanoid pathway. In etiolated seedlings phenylalanine is synthesized via a phenylpyruvate intermediate, much like in bacteria and fungi, and not via an arogenate pathway (Warpeha et al., Plant Physiol. 140:844-855).
All plants are returned to complete darkness for two hours after which cytosolic extracts are prepared and assayed as described infra.

[3] = Stability of absorbance spectra of cell free extracts with or without phenylalanine; format: physicochemical, Arabidopsis; conditions: cell free extracts in buffer; 24 h, room temperature or +4° C., lab lighting
Method: Cell free extracts were left at room temperature for 24 h after a 10^5 μmol m^−2 treatment of UV (366 nm) in lab lighting (which is fluorescent).

PD1 [4] = molecular target: T1, PD1 (Arabidopsis thaliana, UniProt Q9ZUY3); test: In vitro GPA1-PD1 activation assay; format: biochemical; conditions: compared with inactive (GDP or GDPβS) or no GPA1
T1 construct: Full-length GPA1 and PD1 templates were amplified, prepared, and purified by the methods described; made in house; host or cells: cell-free: TNT T7 coupled wheat germ extract system (Promega)
T1 sequence (Q9ZUY3 25-424): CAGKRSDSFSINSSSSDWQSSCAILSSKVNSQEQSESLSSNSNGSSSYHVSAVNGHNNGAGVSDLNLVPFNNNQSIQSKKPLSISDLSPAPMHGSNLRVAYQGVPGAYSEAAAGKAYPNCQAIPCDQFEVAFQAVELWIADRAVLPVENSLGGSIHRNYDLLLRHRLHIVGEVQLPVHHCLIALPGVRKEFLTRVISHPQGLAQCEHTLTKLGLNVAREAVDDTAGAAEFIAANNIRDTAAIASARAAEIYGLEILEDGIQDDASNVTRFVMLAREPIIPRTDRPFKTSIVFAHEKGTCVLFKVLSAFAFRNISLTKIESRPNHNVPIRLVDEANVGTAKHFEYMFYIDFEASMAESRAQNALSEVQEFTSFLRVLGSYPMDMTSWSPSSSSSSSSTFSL
T1 sequence (P18064 1-383 partner): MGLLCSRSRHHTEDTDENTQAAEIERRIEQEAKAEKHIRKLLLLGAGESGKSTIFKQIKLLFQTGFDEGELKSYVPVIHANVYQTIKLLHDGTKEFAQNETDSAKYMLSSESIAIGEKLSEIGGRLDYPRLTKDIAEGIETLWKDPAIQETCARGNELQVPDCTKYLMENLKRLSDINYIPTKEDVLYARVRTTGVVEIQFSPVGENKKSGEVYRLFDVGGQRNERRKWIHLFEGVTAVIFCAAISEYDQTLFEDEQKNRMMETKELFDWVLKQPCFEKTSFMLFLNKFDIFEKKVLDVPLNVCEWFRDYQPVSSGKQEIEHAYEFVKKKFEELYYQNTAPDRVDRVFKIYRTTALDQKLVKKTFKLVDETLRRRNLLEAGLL
Method: Full-length GPA1 and PD1 templates were amplified, prepared, and purified by the methods described (Lapik and Kaufman, 2003). GPA1 and PD1 proteins were individually produced by coupled in vitro transcription/translation using TNT T7 coupled wheat germ extract system (Promega). In vitro association assays were conducted by mixing approximately equimolar concentrations of GPA1 with PD1 in PD assay buffer at 4° C. with modifications for plants: 50 mM K2PO4 pH 7.5, 1.0 mM dithiothreitol, […], and 0.5% protease inhibitor cocktail for plants. Activated GPA1 was achieved by preincubation with […] (a nonhydrolyzable GTP analog). Inactivated GPA1 was achieved by preincubation with GDP, or GDPγS (a nonhydrolyzable GDP analog). […] Reaction mixtures were stopped at time zero and various time points thereafter by adding 0.5 volume of 1N NaOH.
The increase in activity occurs quickly as approximately 90% of the measured increase in activity occurs within the first 10 min of incubation.

CC/C=C\C[C@H]1C(=O)CC[C@@H]1CC(=O)O [JA, jasmonic acid, reference compound]
accumulation of UV- and BL-absorbing fluorescent material in cotyledons [1]: response pattern is identical to that of UV-B, salt and heat

CC1=CC(=O)CC(C)(C)[C@@]1(O)/C=C/C(C)=C\C(=O)O [ABA, abscisic acid]
Lhcb RNA accumulation in mutant seedlings (Lhcb expression; gcr1, gpa1, prn1, nf-y-b9, nf-y-a5 mutants): fails to induce Lhcb RNA accumulation
Lhcb expression in wild type seedlings (Lhcb expression; six-d-old etiolated wild type): induces Lhcb expression
accumulation of UV- and BL-absorbing fluorescent material in cotyledons [1]: phenotype identical to that observed in wild-type seedlings for BL irradiation; also recorded: response pattern is identical to that of UV-B, salt and heat
cytosolic PD1 activity (PD1 [2]): increase in cytosolic PD1 activity

CSCC[C@H](N)C(=O)O [L-methionine, reference compound]
stability of the extract solution (absorbance spectra, pigments) over time [3]: did not increase stability of the solution

B1: activated GPA1: Arabidopsis G-protein Gα subunit made by in vitro transcription/translation, activated with GTPγS (protein, UniProt P18064 2-383, looked up)
Guanine nucleotide-binding …: GLLCSRSRHHTEDTDENTQAAEIERRIEQEAKAEKHIRKLLLLGAGESGKSTIFKQIKLLFQTGFDEGELKSYVPVIHANVYQTIKLLHDGTKEFAQNETDSAKYMLSSESIAIGEKLSEIGGRLDYPRLTKDIAEGIETLWKDPAIQETCARGNELQVPDCTKYLMENLKRLSDINYIPTKEDVLYARVRTTGVVEIQFSPVGENKKSGEVYRLFDVGGQRNERRKWIHLFEGVTAVIFCAAISEYDQTLFEDEQKNRMMETKELFDWVLKQPCFEKTSFMLFLNKFDIFEKKVLDVPLNVCEWFRDYQPVSSGKQEIEHAYEFVKKKFEELYYQNTAPDRVDRVFKIYRTTALDQKLVKKTFKLVDETLRRRNLLEAGLL
modifications: GTPγS-bound
increase in PD1 activity (PD1 [4]): 2 fold
